Measured values published in US20090326072A1, “USE OF 2-(2-NITRO-4-TRIFLUOROMETHYLBENZOYL)-l,3- CYCLOHEXANEDIONE IN THE TREATMENT OF PARKINSON'S DISEASE” (priority 2005, published 2009).
“Also recorded” adds a separate entry of the source. Like-named read-outs stand apart in the source and are kept apart here.

What was measured:
plasma tyrosine = test: Plasma tyrosine concentration kinetic profile in the rat following a single oral dose; format: in vivo; conditions: for Plasma tyrosine: single oral dose 2.0 mg/kg; for Plasma Tyrosine Concentration: single oral dose 10 mg/kg
Protocol: The plasma tyrosine concentration kinetic profile in the rat was determined for each of the HPPD inhibitor test compounds by administering a single oral dose to 10-12 week old male Sprague Dawley rats. Compounds 3.20, 3.13 and 3.26 were dosed at 2 mg/kg in 1% carboxymethylcellulose (1% CMC) vehicle, whilst compounds 3.22, 3.12, 3.15, 3.18, 3.23, 3.21, 3.11, 3.01, 3.24 and 3.25 were administered at 10 mg/kg in 1% CMC.
Blood samples to determine plasma tyrosine concentration were obtained at frequent intervals during the first 24 hours post-dose, and at 48 hours post-dose. These samples were either compared with blood samples obtained from control rats which only received an equivalent volume of the vehicle, 1% CMC, or by comparison with control samples obtained from the rats 1 hour prior to dosing with test the compound. Prior to the analysis of the samples for plasma tyrosine concentration, the blood samples were centrifuged at 1800 g for 10 minutes at 4° C. The plasma was collected and then filtered through a centrifugal micro partition device at 1500 g for 30 minutes at 4° C. The filtered plasma was then divided into two aliquots and stored frozen at −70° C. for subsequent gradient reverse phase high performance liquid chromatographic (HPLC) analysis of plasma tyrosine. Aliquots of plasma were analysed by HPLC using a 250×4.6 mm Hichrom S5ODS2 column at 30° C., eluted with a mobile phase of water/acetonitrile/trifluoroacetic acid (950:50:2 v/v/v) at a flow rate of 1 ml/min. Detection was by a diode array detector at 274 nm. Appropriate tyrosine standards were run alongside the samples for calibration purposes.
The plasma tyrosine concentration kinetic profile for the test compounds 3.20, 3.13 and 3.26 are shown at the time points 1, 2, 4, 6, 12, 24 and 48 hours post-dose in Table 1.1. The data shown are the mean±standard deviation (n=4), except for the 6 hour time point where the data were obtained from n=3 rats for the control and 3.26 groups.
The plasma tyrosine concentration kinetic profile for the test compounds 3.22, 3.12, 3.15, 3.18, 3.23, 3.21, 3.11, 3.01, 3.24 and 3.25 are shown at the time points −1 hour (pre-dose control), 1, 3, 6, 12, 24 and 48 hours post-dose, in Tables 1.2 and 1.3. The data shown are the mean±standard deviation (n=3), except for the −1 hour time point with compound 3.23, where n=2 (Table 1.2), and for the 3 and 6 hour time points with compound 3.21, where n=2 (Table 1.3).

[1] = molecular target: T1, 4-hydroxyphenyl pyruvate dioxygenase (HPPD) (Rattus norvegicus, UniProt P32755); test: Determination of 4-hydroxyphenyl pyruvate dioxygenase (HPPD) enzyme activity in vitro (rate of oxygen consumption, rat liver cytosol); format: biochemical; conditions: for inhibition at 0.1 µM: read-out: % Inhibition at 100 nM; for inhibition at 0.3 µM: read-out: % inhibition at 300 nM
T1 construct: rat liver cytosol (2.7 mg of protein/ml incubate); from tissue; host or cells: rat liver (cytosol, 110,000 g supernatant)
Protocol: The principle of the assay is that 4-hydroxyphenyl pyruvate dioxygenase (HPPD), an enzyme that participates in the catabolism of tyrosine, catalyses the oxidative decarboxylation and rearrangement of 4-hydroxyphenylpyruvate (HPPA) to homogentisate, with the incorporation of both atoms of molecular oxygen into the product.
Rat liver was homogenised in buffer of the following composition; 0.25 M Sucrose, 5.4 mM EDTA, 20 mM Tris base, pH 7.4, (25% homogenate) using 6 passes of a Potter type homogeniser. The homogenate was then centrifuged at 1,800 g for 10 minutes at 4° C., the pellet was discarded and the supernatant centrifuged at 17,000 g for a further 15 minutes at 4° C. The pellet was then discarded and the supernatant centrifuged at 110,000 g for 80 minutes at 4° C. The supernatant containing the HPPD enzyme from this 110,000 g spin was collected and stored frozen at −70° C. and used in the assays of the test compounds (see below).
Prior to the start of the enzymatic reaction by the addition of HPPA substrate, the enzyme and test compound (inhibitor) were incubated together for 3 minutes.
In cases where the effects of several concentrations of an inhibitor were investigated, an IC50 value (the half-maximal inhibitory concentration of test compound) was determined by plotting the data using a non-linear regression curve-fitting program using a GraphPad Prism™ software package.
Data are expressed as mean values from two experiments except where indicated. Where appropriate the values are expressed as the mean±standard deviation.

[2] = system: AMPT rat model of Parkinson's disease; test: AMPT rat model of Parkinson's disease (catalepsy descent latency and centre rearing counts); format: in vivo
Protocol: AMPT is a competitive inhibitor of tyrosine hydroxylase. Rats dosed with >150 mg/kg AMPT develop parkinsonian-like behavior and locomotor deficits (e.g. catalepsy and reduced rearing activity) within hours owing to the depletion of striatal dopamine concentration as a consequence of the reduced flux through the dopamine synthetic pathway. […] Indian J. Exp. Biol. 41, 1264-1268).
The effect was compared with appropriate vehicle control groups (oral vehicle was 1% carboxymethylcellulose; CMC) and a group that received a 150 mg/kg i.p. dose of L-dopa.
Eight hours after AMPT (or vehicle) administration rats were assessed for catalepsy and centre rearing activity. During the catalepsy test, the front paws of the rat were placed over a horizontal bar suspended 9 cm off the floor. The time taken for the rat to get off the bar (descent latency) was measured with a maximum time of 3 minutes being allowed. Centre rearing counts were determined over a 1 hour monitoring period using an automated activity monitoring system (AM1053). This system used an array of infrared beams to determine the activity and mobility of each animal. Each cage had 48 infrared beams, 24 on each of two levels arranged in an 8×16, 1″ (25.4 mm) pitch grid. The lower grid measured horizontal x, y movement, whilst the upper grid measured rearing movement. The activity detector operated by counting the number of times the beams changed from unbroken to broken and then incrementing the relevant counters.
These groups were compared to a positive control group (6) dosed with 225 mg/kg AMPT i.p.+150 mg/kg L-dopa i.p. 6.5 hour post AMPT dose. L-dopa was administered with a peripheral dopa decarboxylase inhibitor (benserazide), at 100 mg/kg i.p.
In a second and third series of experiments, the efficacy of eight other HPPD inhibitor test compounds were assessed in the AMPT rat model of Parkinson's disease (Tables 1.5 & 1.6). Male Sprague-Dawley rats (300-350 g) were administered a single i.p. dose of 225 mg/kg AMPT and a single oral dose of 10 mg/kg of the HPPD inhibitor test compound was administered either 1 or 16 hours prior to (−16 or −1 hours) AMPT administration. Behavioral assessment (catalepsy and centre rearing counts) was conducted 8 hours post AMPT administration. The effect was compared with a vehicle control group and a group receiving AMPT alone.

[3] = 100 nM test compound, rat liver cytosol, 3 min pre-incubation
[4] = 300 nM test compound, rat liver cytosol, 3 min pre-incubation
[5] = Table 1.6: 225 mg/kg AMPT i.p. + 10 mg/kg oral at -16 hours, 8 h post AMPT
[6] = single oral dose 10 mg/kg, -16 or -1 hours
[7] = single oral dose 10 mg/kg, -16 or -1 hours, 10 mg/kg
[8] = Table 1.5: 225 mg/kg AMPT i.p. + 10 mg/kg oral at -16 hours, 8 h post AMPT
[9] = 225 mg/kg AMPT i.p. + 2 mg/kg oral 4 hours post AMPT (+4 hours), 8 h post AMPT
[10] = 225 mg/kg AMPT i.p. + 2 mg/kg oral 16 hours prior to AMPT (-16 hours), 8 h post AMPT
[11] = 225 mg/kg AMPT i.p. + 150 mg/kg i.p. at +6.5 hours, with benserazide 100 mg/kg i.p., 8 h post AMPT

T1 sequence (P32755 whole entry): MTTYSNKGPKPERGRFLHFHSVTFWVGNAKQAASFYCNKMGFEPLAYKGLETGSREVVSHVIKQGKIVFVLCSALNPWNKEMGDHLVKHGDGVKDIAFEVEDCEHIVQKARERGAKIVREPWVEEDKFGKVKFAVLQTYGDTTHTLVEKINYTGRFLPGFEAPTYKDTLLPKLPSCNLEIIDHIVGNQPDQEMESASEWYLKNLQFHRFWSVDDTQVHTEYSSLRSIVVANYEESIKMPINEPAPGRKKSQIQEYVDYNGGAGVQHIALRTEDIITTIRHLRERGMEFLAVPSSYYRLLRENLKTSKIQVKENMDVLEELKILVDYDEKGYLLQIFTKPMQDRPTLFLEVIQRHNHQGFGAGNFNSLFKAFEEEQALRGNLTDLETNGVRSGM

Row | inhibition at 0.1 µM [1, 3] [%] | Compound | Plasma Tyrosine Concentration (plasma tyrosine; 1 hour post-dose) [nmol/mL] | Plasma Tyrosine Concentration (plasma tyrosine; 3 hours post-dose) [nmol/mL] | Plasma Tyrosine Concentration (plasma tyrosine; 6 hours post-dose) [nmol/mL] | Plasma Tyrosine Concentration (plasma tyrosine; 12 hours post-dose) [nmol/mL] | Plasma Tyrosine Concentration (plasma tyrosine; 24 hours post-dose) [nmol/mL] | Plasma Tyrosine Concentration (plasma tyrosine; 48 hours post-dose) [nmol/mL] | inhibition at 0.1 µM [1] [%] | inhibition at 0.3 µM [1] [%] | other results
1 | 20 ± 6.1 | Cc1nc(C(F)F)ccc1C(=O)C1C(=O)C2CCC(C2)C1=O (stereo not drawn) [Compound 3.26] |  |  |  |  |  |  |  |  | Plasma tyrosine (plasma tyrosine; 1 hour post-dose): 173 ± 9.6 nmol/mL; Plasma tyrosine (plasma tyrosine; 2 hours post-dose): 241 ± 24.0 nmol/mL; Plasma tyrosine (plasma tyrosine; 4 hours post-dose): 337 ± 53.5 nmol/mL; Plasma tyrosine (plasma tyrosine; 6 hours post-dose): 504 ± 72.7 nmol/mL; Plasma tyrosine (plasma tyrosine; 12 hours post-dose): 897 ± 140.8 nmol/mL; Plasma tyrosine (plasma tyrosine; 24 hours post-dose): 1987 ± 50.0 nmol/mL; Plasma tyrosine (plasma tyrosine; 48 hours post-dose): 2449 ± 156.8 nmol/mL; inhibition at 0.3 µM [1, 4]: 43%
2 | 5 | CS(=O)(=O)c1cc(Cl)ccc1C(=O)c1cnoc1C1CC1 [Compound 3.25] | 162 ± 17.7 | 267 ± 19.4 | 370 ± 60.8 | 415 ± 152.8 | 136 ± 31.2 | 100 ± 13.5 |  |  | inhibition at 0.3 µM [1, 4]: 22%
3 | 40 | CCn1ncc(C(=O)c2ccc(S(C)(=O)=O)c(OCCOC)c2Cl)c1O [Compound 3.12] | 168 ± 20.1 | 289 ± 35.6 | 451 ± 72.7 | 969 ± 65.2 | 1543 ± 91.1 | 114 ± 8.0 |  |  | Mean Catalepsy Descent Latency (s) [2, 5]: 16 ± 4.2^+++ s; Mean Centre Rearing Counts [2, 5]: 211 ± 65 counts; reversal of AMPT induced deficits in mean centre rearing counts (in words) [2, 6]: either partially or completely reversing; reversal of AMPT induced catalepsy (in words) [2, 7]: substantially reversed; also recorded: effective in reversing
4 |  | Cc1nc(C(F)(F)F)ccc1C(=O)C1C(=O)C2CCC(C2)C1=O.[K+] (stereo not drawn) [Compound 3.24] | 184 ± 27.8 | 313 ± 49.9 | 548 ± 83.9 | 1008 ± 85.2 | 2110 ± 111.1 | 2571 ± 167.7 | 5 | 34 | Mean Catalepsy Descent Latency (s) [2, 8]: 15 ± 8.9^+++ s; Mean Centre Rearing Counts [2, 8]: 189 ± 36 counts; reversal of AMPT induced deficits in mean centre rearing counts (in words) [2, 6]: either partially or completely reversing; reversal of AMPT induced catalepsy (in words) [2, 7]: substantially reversed; also recorded: effective in reversing
5 |  | O=C1CCCC(O)=C1C(=O)c1ccc(C(F)(F)F)cc1[N+](=O)[O-] [Compound 2, 2-(2-Nitro-4-Trifluoromethylbenzoyl)-1,3-Cyclohexanedione] |  |  |  |  |  |  |  |  | Mean Catalepsy Descent Latency (s) [2, 9]: 27 ± 6.7^++ s; Mean Centre Rearing Counts [2, 9]: 298 ± 57^++ counts; Mean Catalepsy Descent Latency (s) [2, 10]: 27 ± 5.4^++ s; Mean Centre Rearing Counts [2, 10]: 364 ± 74^++ counts; Mean Catalepsy Descent Latency ([2]; AMPT vehicle (saline i.p., no AMPT) + 2 mg/kg oral at +4 hours, assessed 8 h): 12 ± 4.3 s; Mean Centre Rearing Counts ([2]; AMPT vehicle (saline i.p., no AMPT) + 2 mg/kg oral at +4 hours, assessed 8 h, 1 hour monitoring): 485 ± 108 counts; reversal of AMPT induced deficits in centre rearing counts (in words) ([2]; single oral dose 2 mg/kg, 2 mg/kg): reversed; also recorded: effective in reversing; reversal of AMPT induced catalepsy (in words) ([2]; single oral dose 2 mg/kg, both dosing regimens, 2 mg/kg): substantially reversed; also recorded: effective in reversing
6 |  | N[C@@H](Cc1ccc(O)c(O)c1)C(=O)O [L-dopa, L-3,4-dihydroxyphenylalanine, reference compound] |  |  |  |  |  |  |  |  | Mean Catalepsy Descent Latency (s) [2, 11]: 25 ± 6.9^++ s; Mean Centre Rearing Counts [2, 11]: 258 ± 71^+ counts
7 | 44 | CCOc1c(S(C)(=O)=O)ccc(C(=O)C2C(=O)CC(C)CC2=O)c1Cl (stereo not drawn) [Compound 3.22] | 179 ± 18.5 | 319 ± 43.5 | 507 ± 86.4 | 1011 ± 134.8 | 2067 ± 36.6 | 2377 ± 518.5 |  |  | 
8 |  | COCCOCc1nc(C(F)(F)F)ccc1C(=O)C1=C(O)C2CCC(C2)C1=O (stereo not drawn) [Compound 3.13] |  |  |  |  |  |  | 14 | 41 | Plasma tyrosine (plasma tyrosine; 1 hour post-dose): 158 ± 6.4 nmol/mL; Plasma tyrosine (plasma tyrosine; 2 hours post-dose): 209 ± 14.8 nmol/mL; Plasma tyrosine (plasma tyrosine; 4 hours post-dose): 324 ± 50.2 nmol/mL; Plasma tyrosine (plasma tyrosine; 6 hours post-dose): 461 ± 52.2 nmol/mL; Plasma tyrosine (plasma tyrosine; 12 hours post-dose): 801 ± 24.8 nmol/mL; Plasma tyrosine (plasma tyrosine; 24 hours post-dose): 1281 ± 90.0 nmol/mL; Plasma tyrosine (plasma tyrosine; 48 hours post-dose): 115 ± 3.0 nmol/mL; IC50 ([1]; rat liver cytosol HPPD): 0.35 µM
9 |  | CC1=NN(C)C(=O)C1C(=O)c1ccc(C(F)(F)F)cc1S(C)(=O)=O (stereo not drawn) [Compound 3.21] | 177 ± 17.8 | 300 | 472 | 555 ± 39.0 | 181 ± 23.6 | 100 ± 6.4 | 10 | 43 | 
